Test results published in patent US10933063B2 (priority 2017, dated 2021).

Target: BTK (Homo sapiens (Human), UniProt Q06187)
Assay: biochemical

Sequence of BTK (Q06187 whole entry, looked up, species assumed): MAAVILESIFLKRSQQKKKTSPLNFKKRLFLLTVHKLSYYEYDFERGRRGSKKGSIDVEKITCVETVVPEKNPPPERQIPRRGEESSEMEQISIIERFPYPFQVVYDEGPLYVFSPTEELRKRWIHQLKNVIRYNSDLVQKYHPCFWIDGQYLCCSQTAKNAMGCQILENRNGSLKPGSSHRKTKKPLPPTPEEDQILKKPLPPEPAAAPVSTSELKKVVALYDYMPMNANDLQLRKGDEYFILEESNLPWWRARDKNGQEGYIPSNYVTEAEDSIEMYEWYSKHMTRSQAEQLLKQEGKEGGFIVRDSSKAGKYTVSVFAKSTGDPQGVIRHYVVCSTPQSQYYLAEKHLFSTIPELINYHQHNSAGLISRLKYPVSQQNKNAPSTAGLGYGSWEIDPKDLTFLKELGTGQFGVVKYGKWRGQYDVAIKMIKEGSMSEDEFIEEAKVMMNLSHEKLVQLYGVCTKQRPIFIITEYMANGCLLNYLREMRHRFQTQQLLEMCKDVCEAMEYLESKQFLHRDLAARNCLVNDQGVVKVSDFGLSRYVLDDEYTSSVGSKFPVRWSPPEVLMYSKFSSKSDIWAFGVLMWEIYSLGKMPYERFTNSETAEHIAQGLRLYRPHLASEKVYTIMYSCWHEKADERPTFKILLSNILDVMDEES

Row | SMILES | IC50 [nM]
1 | C=CC(=O)N1CCCC[C@H]1c1nc(-c2ccc(C(=O)Nc3ccccn3)cc2)c2c(C)ncc(C)n12 [Example 188, (S)-4-(3-(1-acryloylpiperidin-2-yl)-5,8-dimethylimidazo [1,5-a]pyrazin-1-yl)-N-(pyridin-2-yl)benzamide] | 10 to 100
2 | CC#CC(=O)N1CC[C@@H](c2nc(-c3ccc(Oc4cccc(OC)c4F)cc3)c3c(CC)nccn23)C1 [Example 107, (R)-1-(3-(8-ethyl-1-(4-(2-fluoro-3-methoxyphenoxy)phenyl)imidazo[1,5-a]pyrazin-3-yl)pyrrolidin-1-yl)but-2-yn-1-one] | 10 to 100
3 | CC#CC(=O)N1CCC[C@H]1c1nc(-c2ccc(Oc3cccc(OC(C)C)c3)cc2)c2cnccn12 [Example 39, (S)-1-(2-(1-(4-(3-isopropoxyphenoxy)phenyl)imidazo[1,5-a]pyrazin-3-yl)pyrrolidin-1-yl)but-2-yn-1-one] | 100 to 1000
4 | CC#CC(=O)N1CCCC[C@H]1c1nc(-c2ccc(C(=O)Nc3ccccn3)cc2)c2cnccn12 [Example 169, (S)-4-(3-(1-(but-2-ynoyl)piperidin-2-yl)imidazo [1,5-a]pyrazin-1-yl)-N-(pyridin-2-yl)benzamide] | 100 to 1000
5 | CC#CN1CCC[C@H]1c1nc(-c2ccc(C(=O)Nc3cc(C(F)(F)F)ccn3)cc2)c2c(CF)nccn12 [Example 209, (S)-4-(8-(fluoromethyl)-3-(1-(prop-1-yn-1-yl)pyrrolidin-2-yl)imidazo [1,5-a]pyrazin-1-yl)-N-(4-(trifluoromethyl)pyridin-2-yl)benzamide] | 100 to 1000
6 | CC#CC(=O)N1CCCC[C@H]1c1nc(-c2ccc(OCc3cccc(F)c3)cc2)c2c(C)nccn12 [Example 140, (S)-1-(2-(1-(4-((3-fluorobenzyl)oxy)phenyl)-8-methylimidazo[1,5-a]pyrazin-3-yl)piperidin-1-yl)but-2-yn-1-one] | 100 to 1000
7 | CC#CC(=O)N1CCCC[C@H]1c1nc(-c2ccc(Oc3cccc(OC)c3F)cc2)c2c(C(=O)OC)nccn12 [Example 67, methyl (S)-3-(1-(but-2-ynoyl)piperidin-2-yl)-1-(4-(2-fluoro-3-methoxyphenoxy)phenyl)imidazo[1,5-a]pyrazine-8-carboxylate] | 1000 to 10000
8 | COc1cccc(Oc2ccc(-c3nc([C@@H]4CCCN4C(=O)/C(C#N)=C/C(C)(C)C)n4ccncc34)cc2)c1F [Example 31, (S,E)-2-(2-(1-(4-(2-fluoro-3-methoxyphenoxy)phenyl)imidazo[1,5-a]pyrazin-3-yl)pyrrolidine-1-carbonyl)-4,4-dimethylpent-2-enenitrile] | 100 to 1000
9 | C=CC(=O)N1CCCC[C@H]1c1nc(-c2ccc(Oc3cccc(C)c3)cc2)c2cnccn12 [Example 50, (S)-1-(2-(1-(4-(m-tolyloxy)phenyl)imidazo[1,5-a]pyrazin-3-yl)piperidin-1-yl)prop-2-en-1-one] | 10 to 100
10 | CC#CC(=O)N1CCC[C@H]1c1nc(-c2ccc(OCc3c(F)cccc3F)cc2)c2cnccn12 [Example 137, (S)-1-(2-(1-(4-((2,6-difluorobenzyl)oxy)phenyl)imidazo[1,5-a]pyrazin-3-yl)pyrrolidin-1-yl)bul-2-yn-1-one] | 1000 to 10000
11 | C=CC(=O)N1CCC[C@H]1c1nc(-c2ccc(OCc3cccc(F)c3F)cc2)c2cnccn12 [Example 124, (S)-1-(2-(1-(4-((2,3-Difluorobenzyl)oxy)phenyl)imidazo[1,5-a]pyrazin-3-yl)pyrrolidin-1-yl)prop-2-en-1-one] | 10 to 100
12 | C=CC(=O)N1CCC[C@@H](c2nc(-c3ccc(Oc4cccc(OC)c4F)cc3)c3c(C)ncc(C)n23)C1 [Example 76, (R)-1-(3-(1-(4-(2-fluoro-3-methoxyphenoxy)phenyl)-5,8-dimethylimidazo[1,5-a]pyrazin-3-yl)piperidin-1-yl)prop-2-en-1-one] | 10 to 100
13 | C=CC(=O)N1CCC[C@H]1c1nc(-c2ccc(Oc3cccc(OC)c3F)cc2)c2c(C(N)=O)nccn12 [Example 37, (S)-3-(1-acryloylpyrrolidin-2-yl)-1-(4-(2-fluoro-3-methoxyphenoxy)phenyl)imidazo[1,5-a]pyrazine-8-carboxamide] | 1000 to 10000
